Reference: PubChem BioAssay (NCI)
Several values for one entry are separate records, joined by “and”; a condition that tells them apart may be missing. Identical values can stand only once.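 Following 48 hours of exposure in 96-well plates, responses at five concentrations were used to interpolate endpoints linearly. GI50 marks 50% less growth. TGI marks complete inhibition of growth.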

Legend:
Assay in all cases: NCI anticancer screen, dose series, 48 h
[1] = tested on: U251 CNS
[2] = tested on: SW-620 colon
[3] = tested on: OVCAR-5 ovarian
[4] = tested on: HOP-62 NSCLC
[5] = tested on: HCC-2998 colon
[6] = tested on: SF-295 CNS
[7] = tested on: NCI-H23 lung
[8] = tested on: UO-31 renal
[9] = tested on: SK-OV-3 ovarian
[10] = tested on: NCI/ADR-RES ovarian

SMILES	TGI [1] [µM]	TGI [2]	TGI [3] [µM]	TGI [4] [µM]	TGI [5] [µM]	TGI [6] [µM]	TGI [7] [µM]	TGI [8] [µM]	TGI [9] [µM]	GI50 [4] [µM]	GI50 [8] [µM]	GI50 [3] [µM]	GI50 [6] [µM]	GI50 [10] [µM]	TGI [10] [µM]	GI50 [1] [µM]	GI50 [2] [µM]	GI50 [9] [µM]	GI50 [7] [µM]	GI50 [5] [µM]
CC(C)=Cc1cc(C(=O)Nc2ccc(Cl)c(Cl)c2)nc(N)n1	> 100	> 100 µM	> 100	> 100	> 100	> 100	> 100	> 100	–	–	–	–	–	–	–	–	–	–	–	–
O=C(/C=C\c1ccc(Cl)c(Cl)c1)c1ccc(Cl)cc1Cl	40.6	8.47 µM and 18.9 µM	–	> 100	58.6	47.1	14.1	> 100	51	> 100	> 100	–	–	–	–	–	–	–	–	–
COc1cc(/C=C2\CN(S(=O)(=O)c3ccccc3)C/C(=C\c3cc(CN4CCCC4)c(O)c(OC)c3)C2=O)cc(CN2CCCC2)c1O	–	–	3.86	–	–	3.64	–	5.31	–	–	1.92	1.91	1.55	> 100	> 100	–	–	–	–	–
CC(C)OP(=O)(OC(C)C)C(=NCCN=C(NNc1ccc([N+](=O)[O-])cc1)P(=O)(OC(C)C)OC(C)C)NNc1ccc([N+](=O)[O-])cc1	91.2	> 100 µM	> 100	> 100	> 100	–	5.23	> 100	–	–	–	–	–	–	–	–	–	–	–	–
COc1cc2c(c(OC)c1OC)-c1ccc(OC)c(=O)cc1C(NC(=O)c1ccc(N=[N+]=[N-])cc1)CC2 (configuration not stated)	4	> 100 µM	> 100	> 95.1	0.0513	0.0582	> 100	> 95.7	–	–	–	–	–	–	–	–	–	–	–	–
CC(=O)OC1COC(n2ccc3cc(Br)c([N+](=O)[O-])cc32)C(OC(C)=O)C1OC(C)=O (configuration not stated)	56	> 100 µM	–	92.2	59.6	66.7	61.3	42.8	> 100	–	–	–	–	–	–	–	–	–	–	–
Cn1c2ccccc2c2cc(-c3ccccc3)c3c(c21)C(=O)c1ccccc1C3=O	–	66.5 µM	–	> 100	> 100	74.4	22.8	35.4	> 100	–	–	–	–	–	–	–	–	–	–	–
CC(=O)/C(=C\c1cccc([N+](=O)[O-])c1)C(=O)Nc1ccccc1C	> 100	> 100 µM	> 100	> 100	> 100	> 100	> 100	> 100	> 100	–	–	–	–	–	–	–	–	–	–	–
CC(C)C(C)/C=C\C(C)C1CCC2C3=CC=C4CC(O)CCC4(C)C3CCC21C (configuration not stated)	> 47.7	> 72.3 µM	> 100	> 79.5	–	> 100	> 100	> 79	> 100	–	–	–	–	–	> 70.7	–	–	–	–	–
Clc1ccc(C(c2ccc(Cl)cc2)c2ccccn2)cc1	30.9	44 µM	29.5	–	30.9	43.4	> 100	30.5	86.5	–	–	–	–	–	–	–	–	–	–	–
Cc1cccc(NC(=O)Cn2cnc3sc(C(=O)OC(C)C)c(C)c3c2=O)c1	31	> 50 µM	–	35.9	–	> 50	–	> 50	> 50	13.7	> 50	–	> 50	–	–	12.6	33.5	26.8	–	–
Cc1ccc(S(=O)(=O)Nc2ccccc2C(=O)c2ccc(C)c(C)c2)cc1	> 100	> 100 µM	> 100	> 100	–	> 100	> 100	> 100	> 100	–	–	–	–	–	> 100	–	–	–	–	–
Brc1ccccc1C1SCc2nc3ccccc3n21 (configuration not stated)	29.7	> 100 µM	68	39.2	–	82.9	33.3	22.6	56.7	–	–	–	–	–	–	–	–	–	–	–
OCCCCCNCc1cc2cc3c(cc2c2cc(OCc4ccccc4)ccc12)OCO3	3.01	2.69 µM	–	3.23	–	3	–	3.27	7.94	1.72	1.66	–	1.59	–	–	1.65	1.39	3.02	–	–
COc1cc2c3c(n(C)c(=O)c2cc1OC)-c1cc2c(cc1/C3=C\CCN)OCO2	22.8	1.62 µM	3.7	5.8	–	8.84	–	8.9	> 62.8	0.067	0.337	0.255	< 0.0239	0.272	2.56	0.16	< 0.01	3.88	–	–
OCC#Cc1ccccc1C#Cc1ccccc1	25.2	43.6 µM	28.3	26.8	–	32.8	27.6	> 100	33.9	13.9	35.2	14.4	15.5	14.8	30.8	11.7	20	16.6	13.7	–
CCc1cc(Cc2cc(CC)c(NC(=O)C(=O)Cc3ccccn3)c(CC)c2Cl)c(Cl)c(CC)c1NC(=O)C(=O)Cc1ccccn1	46.1	31.9 µM	> 100	> 100	> 100	> 100	> 100	> 100	> 100	–	–	–	–	–	–	–	–	–	–	–
C#CC1(O)CCC2C3CCc4cc(Oc5nc(F)nc(-c6c7ccccc7c7sc8ccccc8n67)n5)ccc4C3CC[C@@]21C (some centres not stated)	> 100	> 100 µM	> 100	> 100	> 100	> 100	> 100	> 100	–	–	–	–	–	–	–	–	–	–	–	–
NS(=O)(=O)c1cc(Br)c(N=Nc2ccc(O)c3ncccc23)c(Br)c1	> 100	> 100 µM	> 100	> 100	–	> 100	> 100	89.6	> 100	–	–	–	–	–	65.5	–	–	–	–	–
COC(OC)C(C)CC(=O)N(C)C (configuration not stated)	> 100	> 100 µM	> 100	> 100	> 100	> 100	–	> 100	> 100	–	–	–	–	–	–	–	–	–	–	–

SMILES	TGI [1] [µM]	TGI [2]	TGI [3] [µM]	TGI [4] [µM]	TGI [5] [µM]	TGI [6] [µM]	TGI [7] [µM]	TGI [8] [µM]	TGI [9] [µM]	GI50 [4] [µM]	GI50 [8] [µM]	GI50 [3] [µM]	GI50 [6] [µM]	GI50 [10] [µM]	TGI [10] [µM]	GI50 [1] [µM]	GI50 [2] [µM]	GI50 [9] [µM]	GI50 [7] [µM]	GI50 [5] [µM]
CCOC(=O)CC(=O)ON(C)C(C)=O	> 100	> 100 µM	> 100	> 100	> 100	> 100	> 100	> 100	> 100	–	–	–	–	–	–	–	–	–	–	–
O=c1cc(-c2ccccc2)oc2cc(OCCCOc3ccc4c(=O)cc(-c5ccccc5)oc4c3)ccc12	> 100	> 100 µM	> 100	> 100	> 100	> 100	> 100	–	> 100	–	–	–	–	–	–	–	–	–	–	–
COc1ccc(S(=O)(=O)NNS(C)(=O)=O)cc1	> 100	> 100 µM	–	> 100	> 100	> 100	> 100	> 100	–	–	–	–	–	–	–	–	–	–	–	–
CN(C)c1nc(=Nc2ccc(N=c3nc(N(C)C)ss3)cc2)ss1	> 49.8	> 65.9 µM	> 100	> 100	> 100	> 100	20.1	> 81.6	> 100	–	–	–	–	–	–	–	–	–	–	–
CC(C)(C)OC(=O)N[C@H]1CC2(C=C(Cl)C(=O)C(Cl)=C2)OC1=O	45.2	19.1 µM	38.6	> 73.7	31.8	47.5	33.7	38.8	> 46.4	–	–	–	–	–	–	–	–	–	–	–
CCOC(=O)NC(=O)c1cn(CCCO)c(=O)[nH]c1=O	> 100	> 100 µM	> 100	> 100	> 100	> 100	> 100	> 100	> 100	–	–	–	–	–	–	–	–	–	–	–
CC(=O)[C@@]12O[C@@H]1CC1C3CCC4=CC(O)CCC4(C)C3CCC12C (some centres not stated)	41.3	> 100 µM	88.3	–	–	56.5	> 100	> 100	–	–	> 100	27.9	12.2	20.4	> 100	19.1	39.5	–	55.8	–
C/C(=N\NC(=S)NC(CCC(=O)O)C(=O)O)c1ccccn1 (configuration not stated)	> 100	> 100 µM	> 100	> 100	> 100	> 100	> 100	> 100	> 100	–	–	–	–	–	–	–	–	–	–	–
c1ccc(COc2cccc3ccc[n+](Cc4ccccc4)c23)cc1	> 100	> 100 µM	9.98	50.8	41.4	37.9	23.9	75.2	73.7	–	–	–	–	–	–	–	–	–	–	–
CCN1c2ccccc2C(C(SC)S(=O)(=O)c2ccc(C)cc2)c2c1[nH]c(=O)n(C)c2=O (configuration not stated)	> 100	> 100 µM	> 100	> 100	> 100	> 100	> 100	> 100	> 100	–	–	–	–	–	–	–	–	–	–	–
COc1cc(C2c3cc4c(cc3OC(C)(O)C2C)OCO4)cc(OC)c1OC (configuration not stated)	> 100	> 100 µM	> 100	> 100	> 100	–	> 100	81.5	–	–	–	–	–	–	> 100	–	–	–	–	–
CCCCCCCCC/C=C1\CCC(CN2CCOCC2)C1=O (configuration not stated)	3.73	5.43 µM	31.6	26.4	18.8	20	9.18	14.9	31.2	–	–	–	–	–	–	–	–	–	–	–
Cn1cnc([N+](=O)[O-])c1Sc1nc2ccccc2[nH]1	74.5	–	> 100	> 100	26.9	> 100	48.4	51.9	61.8	–	–	–	–	–	–	–	–	–	–	–
COc1ncnc(NS(=O)(=O)c2ccc(N=C3C(=O)N(CN4CCN(c5c(F)cc6c(=O)c(C(=O)O)cn(C7CC7)c6c5OC)CC4C)c4ccc(Cl)cc43)cc2)c1OC (configuration not stated)	45.2	> 50 µM	> 50	> 50	–	> 50	47.3	> 50	> 50	23.4	32.7	19.2	10.7	8.76	42.1	9.61	10.7	37.7	13.5	–
[Cl-].[La+3].[O-]/N=C(\c1ccccc1)c1ccccn1.[O-]/N=C(\c1ccccc1)c1ccccn1.[O-]/N=C(\c1ccccc1)c1ccccn1	> 100	> 100 µM	–	> 93.9	> 100	> 100	> 100	> 80.8	> 100	28.4	30.2	–	27.7	–	–	32	53.9	50.8	57.1	> 100
Cc1cc(-c2ccc3nc(C4CCOCC4)n(CCOC(F)(F)F)c3c2)cn(C)c1=O	–	33.3 µM	> 56.4	–	–	–	12.8	> 20.7	1.25	–	–	0.552	0.748	0.918	–	1.02	1.79	–	0.518	–
C[C@@H]1CCC2[C@@H](C)[C@@H](OCC(CO[C@H]3OC4O[C@@]5(C)CC[C@H]6[C@H](C)CCC([C@H]3C)[C@@]46OO5)OC(=O)CCC(=O)O)OC3O[C@@]4(C)CC[C@@H]1[C@]32OO4 (some centres not stated)	24.5	18.1 µM	14.7	22.1	–	15.8	11.3	> 46	> 100	0.99	1.57	< 0.01	0.0335	0.245	6.23	< 0.01	0.0285	27.2	0.0101	–
CN(C)c1ccc(/C=C(\NC(=O)c2ccccc2)c2nc3ncncc3[nH]2)cc1	> 100	> 100 µM	> 100	–	> 100	> 100	> 100	> 100	> 100	–	–	–	–	–	–	–	–	–	–	–
CC1=CC(O)(c2ccc(-c3ccccc3Cl)cc2)OC1=O (configuration not stated)	> 100	> 100 µM	> 100	> 100	> 100	> 100	> 100	> 100	> 100	–	–	–	–	–	–	–	–	–	–	–
CCOC(=O)C(=C=C=C(c1ccccc1)c1ccccc1)C(=O)OCC	33.2	51.2 µM	35.5	45.2	61.4	30.6	> 100	34.1	50.3	–	–	–	–	–	–	–	–	–	–	–
